Assay results reported in US5494930A, “Caribenolide I” (priority 1994, dated 1996).
“And” between values parts separate entries of the source, which are not always exact repeats. Equal values may be shown once.

Columns and labels:
[1] = test system: human colon carcinoma cell line HCT 116; assay: In vitro cytotoxicity assay (XTT); assay type: cell-based
Method: Cytotoxicity for the pure compound was assessed in several HCT116 cell lines by XTT (2,3-bis(2-methoxy-4-nitro-5-sulfophenyl)-5-[(phenylamino)carbonyl]-2H-tetrazolium hydroxide assay (Scudiero, 1988). Cells were seeded at 4000 cells/well in 96 well microtiter plates. 24 hrs later drugs were added and serial diluted. The cells were incubated at 37° C. for 72 hrs at which time the tetrazolium dye, XTT, was added. A dehydrogenase enzyme in live cells reduces the XTT to a form that absorbs light at 450 nm and which can be quantitated spectrophotometrically. The greater the absorbance the greater the number of live cells. The results are expressed as an IC50 which is the drug concentration required to inhibit cell proliferation (i.e. absorbance at 450 nm) to 50% of that of untreated control cells.

P388 mouse leukemia [2] = assay: In vivo antitumor activity, i.p. implanted P388 mouse leukemia
Method: (§1) For in vivo evaluation of antitumor activity 1×10^6 P388 mouse leukemia cells were implanted in the intraperitoneal (i.p.) cavity or injected intravenously (i.v.) into (BALB/c ×DBA/2)F1 (CDF1) or (C57/BL6×DBA/2)F1 (BDF1) mice (Roseet al., 1983). Compound (1) was dissolved in DMSO and diluted with saline to the desired concentrations. Injection of Compound (1) was by the i.p. or i.v. route beginning on the first day after tumor implantation and consecutively every day for five treatments (qldX5:1). Increases in lifespan were reflected by the median survival time of treated (T) versus control (C) groups for which a % T/C was calculated. When antitumor activity was evaluated in M109 mouse lung .tumors, 0.2 ml of a 2.0% brei was implanted subcutaneously (s.c.) in CDF1 mice (Rose, 1981). The treatment schedule was one injection per day for days 4-8 after tumor implantation. Results are expressed as % T/C. Tumor growth inhibition was determined by calculating the relative median times for T and C mice to reach a 1 g size. Tumor weights were interchangeable with tumor size on the basis of 1 mm^3 =1 mg. The activity criterion for tumor growth inhibition (T-C) was approximately equal to a T-C of 4 days. Depending on the tumor volume doubling time for the M109 tumors in control mice, this amount of delay in tumor growth is consistent with about one log of cell kill. For both P388 and M109 tumor models, a T/C of […] was considered an active result.
(§2) Initial testing was done versus i.p. implanted P388 mouse leukemia. An optimal dose of 0.03 mg/kg/inj given i.p. produced a 50% increase in lifespan (150% T/C). In addition, Compound (1) was evaluated in two distal site models; i.v. implanted P388 or s.c. implanted M109 in which Compound (1) was given by i.v. injection.

[3] = In vivo antitumor activity, i.v. implanted P388 mouse leukemia (distal site); settings: mouse, in vivo, iv; P388 i.v.; qd 1-5, i.v.; read-out: maximum tolerated dose (MTD)
Method: as §1, §2

P388 mouse leukemia [4] = assay: as above
Method: as §1, §2

M109 mouse lung tumors = assay: In vivo antitumor activity, s.c. implanted M109 mouse lung tumor (distal site)
Method: as §1, §2

C=C1C(O)CC(=O)C(C)C=C(C)CC(O)C2(O)OC(CCC2O)CC2CCC(O2)C(CCCC)OC(=O)C(C)C(O)C2OC12 (stereo not shown) [Compound (1), caribenolide I]
cytotoxicity in vitro (in words) [1]: potent cytotoxicity
IC50 ([1]; human colon carcinoma HCT 116, XTT, 72 hrs): 1.6 nM
optimal dose (OD) (P388 mouse leukemia [2]; P388 i.p., qd 1-5, i.p.): 0.03 mg/kg/inj and 0.030 mg/kg/inj
MST, % T/C (median survival time treated vs control) (P388 mouse leukemia [2]; ip, 0.03 mg/kg): 150%
increase in lifespan (P388 mouse leukemia [2]; ip, 0.03 mg/kg): 50%
MTD [3]: 0.064 mg/kg
increase in life span (in words) (P388 mouse leukemia [4]; P388 i.v., doses up to MTD 0.064 mg/kg/inj, i.v.): did not increase the life span
MST, % T/C (median survival time treated vs control) (P388 mouse leukemia [4]; iv, 0.064 mg/kg): 107%
MST, % T/C (median survival time treated vs control) (M109 mouse lung tumors; 0.060/0.120 mg/kg/inj, qd 4-8, i.v.): 128%
T-C (tumor growth delay) (M109 mouse lung tumors; 0.060/0.120 mg/kg/inj, qd 4-8, i.v., time to 1 g size): 1.3 days
distal site activity (in words) (M109 mouse lung tumors; i.v. dosing): no meaningful distal site activity
OD, first printed value (M109 mouse lung tumors; qd 4-8, i.v.): 0.060 mg/kg/inj
OD, second printed value (M109 mouse lung tumors; qd 4-8, i.v.): 0.120 mg/kg/inj
